Laboratory results as given in patent US7741327B2 (Hoffmann-La Roche Inc., priority 2008, dated 2010).

target: T1, Recombinant human liver GK1 (GST-GK) (Homo sapiens, UniProt P35557); experiment: In vitro glucokinase activity (G6PDH-coupled NADH assay); format: biochemical; settings: 30° C., 5 mM D-glucose, 10% DMSO
T1 construct: made in house; host or cells: E. coli
T1 sequence (P35557 1-466 isoform P35557-2): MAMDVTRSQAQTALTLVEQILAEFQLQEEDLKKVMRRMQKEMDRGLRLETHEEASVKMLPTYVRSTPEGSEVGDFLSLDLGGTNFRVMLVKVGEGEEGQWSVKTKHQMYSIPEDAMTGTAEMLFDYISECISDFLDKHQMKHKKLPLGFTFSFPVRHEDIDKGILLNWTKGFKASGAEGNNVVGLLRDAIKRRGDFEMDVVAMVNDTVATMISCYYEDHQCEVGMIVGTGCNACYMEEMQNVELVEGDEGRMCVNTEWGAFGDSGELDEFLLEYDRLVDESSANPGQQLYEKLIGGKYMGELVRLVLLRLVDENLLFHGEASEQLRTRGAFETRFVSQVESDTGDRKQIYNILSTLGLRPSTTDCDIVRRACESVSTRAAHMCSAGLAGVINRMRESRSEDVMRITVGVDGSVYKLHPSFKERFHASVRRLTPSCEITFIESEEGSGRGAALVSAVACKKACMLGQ
Method in brief: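 GST-tagged human liver GK1 from E. coli, assayed at 30° C in 25 mM Hepes pH 7.1 with 5 mM D-glucose, 1 mM ATP, 1.8 mM NAD and G6PDH coupling, 10% DMSO final; reaction started with enzyme after 10 min preincubation. NADH formation followed at OD340; SC1.5 is activator concentration giving 50% increase over DMSO control rate.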

In order of falling “SC1.5 (concentration of activator that produced a 50% increase in the activity of GK)” value:
1. Cc1nc2c(OC3=CC(=O)N([C@@H](CC(C)C)C(=O)Nc4ccn(CC(C)(C)O)n4)C3)cccc2o1 [Example 243, (S)-4-Methyl-2-[4-(2-methyl-benzooxazol-4-yloxy)-2-oxo-2,5-dihydro-pyrrol-1-yl]-pentanoic acid [1-(2-hydroxy-2-methyl-propyl)-1H-pyrazol-3-yl]-amide]  7.56 µM
2. COCC[C@@H](C(=O)Nc1ccn(C[C@@H](O)CO)n1)N1CC(Oc2ccccc2Cl)=CC1=O [Example 230, (S)-2-[4-(2-Chloro-phenoxy)-2-oxo-2,5-dihydro-pyrrol-1-yl]-N-[1-((R)-2,3-dihydroxy-propyl)-1H-pyrazol-3-yl]-4-methoxy-butyramide]  6.139 µM
3. CC[C@H](C)C[C@H](C(=O)Nc1ccn(C[C@@H](O)CO)n1)N1CC(Oc2ccccc2Cl)=CC1=O (single isomer, unassigned) [Example 250]  6.017 µM
4. CC(C)OC1=CC(=O)N([C@@H](CC2CCCC2)C(=O)Nc2cnccn2)C1 [Example 23, (S)-3-Cyclopentyl-N-(pyrazin-2-yl)-2-(4-isopropoxy-2-oxo-2,5-dihydro-pyrrol-1-yl)-propionamide]  5.216 µM
5. CC(C)NC1=CC(=O)N([C@@H](CC2CCCC2)C(=O)Nc2ccn(CC(C)(C)O)n2)C1 [Example 234, (S)-3-cyclopentyl-N-[1-(2-hydroxy-2-methyl-propyl)-1H-pyrazol-3-yl]-2-(4-isopropylamino-2-oxo-2,5-dihydro-pyrrol-1-yl)-propionamide]  4.624 µM
6. CCc1nsc(NC(=O)[C@H](CC(C)C)N2CC(Oc3ccccc3Cl)=CC2=O)n1 [Example 110, (S)-2-[4-(2-Chloro-phenoxy)-2-oxo-2,5-dihydro-pyrrol-1-yl]-4-methyl-pentanoic acid (3-ethyl-[1,2,4]thiadiazol-5-yl)-amide]  3.478 µM
7. CC(C)OCCn1ccc(NC(=O)[C@H](CC2CCCC2)N2CC(OC3CCCC3)=CC2=O)n1 [Example 20, (S)-3-Cyclopentyl-N-[1-(2-isopropoxy-ethyl)-1H-pyrazol-3-yl]-2-(4-cyclopentyloxy-2-oxo-2,5-dihydro-pyrrol-1-yl)-propionamide]  1.388 µM
8. CCOc1ccccc1OC1=CC(=O)N([C@@H](CC(C)C)C(=O)Nc2ccn(C[C@@H](O)CO)n2)C1.Cl [Example 84, (S)-2-[4-(2-Ethoxy-phenoxy)-2-oxo-2,5-dihydro-pyrrol-1-yl]-4-methyl-pentanoic acid [1-((R)-2,3-dihydroxy-propyl)-1H-pyrazol-3-yl]-amide Hydrochloride]  1.312 µM
9. COc1cccc(OC2=CC(=O)N([C@H](CC3CCOCC3)C(=O)Nc3ccn(CC(C)(C)O)n3)C2)c1Cl [Example 52, (R)-2-[4-(2-Chloro-3-methoxy-phenoxy)-2-oxo-2,5-dihydro-pyrrol-1-yl]-N-[1-(2-hydroxy-2-methyl-propyl)-1H-pyrazol-3-yl]-3-(tetrahydro-pyran-4-yl)-propionamide]  1.027 µM
10. COc1ccccc1OC1=CC(=O)N([C@@H](CC2CCCO2)C(=O)Nc2ccn(CC(C)(C)O)n2)C1 (stereo partly drawn) [Example 179, (S)-N-[1-(2-hydroxy-2-methyl-propyl)-1H-pyrazol-3-yl]-2-[4-(2-methoxy-phenoxy)-2-oxo-2,5-dihydro-pyrrol-1-yl]-3-(tetrahydro-furan-2-yl)-propionamide]  0.295 µM
11. Cc1cccc(OC2=CC(=O)N([C@@H](CC(C)C)C(=O)Nc3ccn(CCO)n3)C2)c1F [Example 133, (S)-2-[4-(2-Fluoro-3-methyl-phenoxy)-2-oxo-2,5-dihydro-pyrrol-1-yl]-4-methyl-pentanoic acid [1-(2-hydroxy-ethyl)-1H-pyrazol-3-yl]-amide]  0.249 µM
12. CCOc1ccc(F)c(OC2=CC(=O)N([C@@H](CC(C)C)C(=O)Nc3ccn(C[C@@H]4COC(C)(C)O4)n3)C2)c1F [Example 116, (S)-2-[4-(3-Ethoxy-2,6-difluoro-phenoxy)-2-oxo-2,5-dihydro-pyrrol-1-yl]-4-methyl-pentanoic acid [1-((R)-2,2-dimethyl-[1,3]dioxolan-4-yl-methyl)-1H-pyrazol-3-yl]-amide]  0.22 µM
13. CC(C)C[C@@H](C(=O)Nc1ccn(C[C@@H](O)CO)n1)N1CC(Oc2cccc(Cl)c2Cl)=CC1=O.Cl [Example 80, (S)-2-[4-(2,3-Dichloro-phenoxy)-2-oxo-2,5-dihydro-pyrrol-1-yl]-4-methyl-pentanoic acid [1-((R)-2,3-dihydroxy-propyl)-1H-pyrazol-3-yl]-amide Hydrochloride]  0.211 µM
14. CC(C)(O)Cn1ccc(NC(=O)[C@H](CC2CCCCO2)N2CC(Oc3cccc(Cl)c3Cl)=CC2=O)n1 (stereo partly drawn) [Example 92, (S)-2-[4-(2,3-Dichloro-phenoxy)-2-oxo-2,5-dihydro-pyrrol-1-yl]-N-[1-(2-hydroxy-2-methyl-propyl)-1H-pyrazol-3-yl]-3-(tetrahydro-pyran-2-yl)-propionamide]  0.161 µM
15. Cc1cccc(OC2=CC(=O)N([C@@H](CC(C)C)C(=O)Nc3ccn(C[C@@H](O)CO)n3)C2)c1F [Example 131, (S)-2-[4-(2-Fluoro-3-methyl-phenoxy)-2-oxo-2,5-dihydro-pyrrol-1-yl]-4-methyl-pentanoic acid [1-((R)-2,3-dihydroxy-propyl)-1H-pyrazol-3-yl]-amide]  0.117 µM
16. COc1cccc(OC2=CC(=O)N([C@@H](CC3CCCCC3)C(=O)Nc3ccn(CC(C)(C)O)n3)C2)c1OC [Example 199, (S)-3-cyclohexyl-2-[4-(2,3-dimethoxy-phenoxy)-2-oxo-2,5-dihydro-pyrrol-1-yl]-N-[1-(2-hydroxy-2-methyl-propyl)-1H-pyrazol-3-yl]-propionamide]  0.07 µM
17. CCOc1cccc(OC2=CC(=O)N([C@@H](CC(C)C)C(=O)Nc3cnc([C@H](O)CO)cn3)C2)c1F [Example 151, (S)-2-[4-(3-Ethoxy-2-fluoro-phenoxy)-2-oxo-2,5-dihydro-pyrrol-1-yl]-4-methyl-pentanoic acid [5-((S)-1,2-dihydroxy-ethyl)-pyrazin-2-yl]-amide]  0.063 µM
18. CC(C)C[C@@H](C(=O)Nc1ccn(C[C@@H](O)CO)n1)N1CC(Oc2cccc3ccccc23)=CC1=O [Example 100, (S)-4-Methyl-2-[4-(naphthalen-1-yloxy)-2-oxo-2,5-dihydro-pyrrol-1-yl]-pentanoic acid [1-((R)-2,3-dihydroxy-propyl)-1H-pyrazol-3-yl]-amide]  0.06 µM
19. CCCc1ccccc1OC1=CC(=O)N([C@@H](CC2CCCCC2)C(=O)Nc2ccn(CC(C)(C)O)n2)C1 [Example 198, (S)-3-cyclohexyl-N-[1-(2-hydroxy-2-methyl-propyl)-1H-pyrazol-3-yl]-2-[2-oxo-4-(2-propyl-phenoxy)-2,5-dihydro-pyrrol-1-yl]-propionamide]  0.056 µM
20. O=C(Nc1ccn(C[C@H](O)CO)n1)[C@H](CC1CCCCC1)N1CC(Oc2c(F)cccc2F)=CC1=O [Example 37, (S)-3-Cyclohexyl-2-[4-(2,6-difluoro-phenoxy)-2-oxo-2,5-dihydro-pyrrol-1-yl]-N-[1-((S)-2,3-dihydroxy-propyl)-1H-pyrazol-3-yl]-propionamide]  0.036 µM
21. CC(C)(O)Cn1ccc(NC(=O)[C@H](CC2CCCCC2)N2CC(Oc3cccc(F)c3)=CC2=O)n1 [Example 206, (S)-3-cyclohexyl-2-[4-(3-fluoro-phenoxy)-2-oxo-2,5-dihydro-pyrrol-1-yl]-N-[1-(2-hydroxy-2-methyl-propyl)-1H-pyrazol-3-yl]-propionamide]  0.034 µM

In the case of `COC1=CC(=O)N([C@@H](CC2CCCC2)C(=O)Nc2nc3ccccc3s2)C1` [Example 3, (S)-N-Benzothiazol-2-yl-3-cyclopentyl-2-(4-methoxy-2-oxo-2,5-dihydro-pyrrol-1-yl)-propionamide], the “SC1.5 (concentration of activator that produced a 50% increase in the activity of GK)” value is reported as > 30 µM.
In the case of `O=C(Nc1ccn(C[C@@H](O)CO)n1)C(CC(F)(F)F)N1CC(Oc2ccccc2Cl)=CC1=O` (stereo partly drawn) [Example 224, 2-[4-(2-Chloro-phenoxy)-2-oxo-2,5-dihydro-pyrrol-1-yl]-N-[1-((R)-2,3-dihydroxy-propyl)-1H-pyrazol-3-yl]-4,4,4-trifluoro-butyramide], the “SC1.5 (concentration of activator that produced a 50% increase in the activity of GK)” value is reported as > 30 µM.

same assay, conditions: at 30 μM test compound

In order of rising “fold act. @ 30 μM” value:
1. COC1=CC(=O)N([C@@H](CC2CCCC2)C(=O)Nc2nc3ccccc3s2)C1 [Example 3, (S)-N-Benzothiazol-2-yl-3-cyclopentyl-2-(4-methoxy-2-oxo-2,5-dihydro-pyrrol-1-yl)-propionamide]  1.3 fold
2. O=C(Nc1ccn(C[C@@H](O)CO)n1)C(CC(F)(F)F)N1CC(Oc2ccccc2Cl)=CC1=O (stereo partly drawn) [Example 224, 2-[4-(2-Chloro-phenoxy)-2-oxo-2,5-dihydro-pyrrol-1-yl]-N-[1-((R)-2,3-dihydroxy-propyl)-1H-pyrazol-3-yl]-4,4,4-trifluoro-butyramide]  1.4 fold
